Experimental findings from patent US9963467B2, “Boronic acid derivatives and therapeutic uses thereof” (Rempex Pharmaceuticals, Inc., priority 2014, dated 2018) are described below.

Data set [1] relates to ec302 (TEM-10). The experiment in a line: Aztreonam potentiation (MPC@4), ec302. The class given is cell-based. To be noted: BLI with aztreonam at 4 μg/mL.
The subject of data set [2] is ECL1002. As to the kind of experiment: Aztreonam potentiation (MPC@4), ECL1002. It is filed as cell-based. To be noted: BLI with aztreonam at 4 μg/mL.
The test system of data set [3] is EC1010 (CMY-6). The experiment in a line: organism not typed. It is filed as cell-based.
The subject of the next data set is KP1005 (CTX-M-14). As to the kind of experiment: Tigemonam potentiation (MPC@4), KP1005. The class given is cell-based. The settings on record: BLI with tigemonam at 4 μg/mL.
The next data set relates to KP1009 (CTX-M-15). As to the kind of experiment: Tigemonam potentiation (MPC@4), KP1009. It is filed as cell-based. The settings on record: BLI with tigemonam at 4 μg/mL.
In another data set the test system is ec308 (SHV-5). As to the kind of experiment: Tigemonam potentiation (MPC@4), ec308. It is filed as cell-based.
The test system of the next data set is KP1010 (SHV-12). The experiment in a line: Tigemonam potentiation (MPC@4), KP1010. It is filed as cell-based.
Data set [4] has as its system ec302 (TEM-10). As to the kind of experiment: Tigemonam potentiation (MPC@4), ec302. The class given is cell-based.
For data set [5], the system named is ECL1002. As to the kind of experiment: Tigemonam potentiation (MPC@4), ECL1002. The class given is cell-based. To be noted: BLI with tigemonam at 4 μg/mL.
The test system of data set [6] is EC1010 (CMY-6). As to the kind of experiment: Tigemonam potentiation (MPC@4), EC1010. The class given is cell-based. The settings on record: BLI with tigemonam at 4 μg/mL.
For the next data set, the target named is CTX-M-14 (Escherichia coli, UniProt Q9L5C7). As to the kind of experiment: Ki, nitrocefin cleavage by purified enzyme, CTX-M-14. The class given is biochemical. To be noted: nitrocefin reporter substrate; read-out: Ki (CTX-M-14, NCF). As to the method:
(§1) Purified enzymes were mixed with various concentrations of inhibitors in reaction buffer and incubated for 10 min at room temperature. Nitrocefin was added and substrate cleavage profiles were recorded at 490 nm every 10 sec for 10 min.

The target in the next data set is SHV-12 (Klebsiella pneumoniae, UniProt P0AD64, E235K/G234S/L31Q). The experiment in a line: Ki, nitrocefin cleavage by purified enzyme, SHV-12. The class given is biochemical. The settings on record: nitrocefin reporter substrate; read-out: Ki (SHV-12, NCF). As to the method:
as §1

The target in another data set is KPC-2 (Klebsiella pneumoniae, UniProt Q9F663). The experiment in a line: Ki, nitrocefin cleavage by purified enzyme, KPC-2. It is filed as biochemical. To be noted: nitrocefin reporter substrate; read-out: Ki (KPC-2, NCF). As to the method:
as §1

A further data set concerns the target P99 (Enterobacter cloacae, UniProt P05364). As to the kind of experiment: Ki, nitrocefin cleavage by purified enzyme, P99. The class given is biochemical. The settings on record: nitrocefin reporter substrate; read-out: Ki (P99, NCF). As to the method:
as §1

The target of the next data set is OXA-48 (Klebsiella pneumoniae, UniProt Q6XEC0). As to the kind of experiment: Ki, nitrocefin cleavage by purified enzyme, OXA-48. It is filed as biochemical. The settings on record: nitrocefin reporter substrate; read-out: Ki (OXA-48, NCF). As to the method:
as §1

The nature of data set [7]: Monomer content of pH adjusted aqueous solutions (LC-UV). The class given is physicochemical. The settings on record: 1 mg/mL aqueous salt solution, pH adjusted to 7.6 to 8, LC-UV. As for the experimental part:
Boronic acid containing compounds are known to undergo oligomerization. The presence of oligomers can greatly complicate drug development, as they represent new chemical species whose content must be controlled and qualified by testing in toxoicology studies. The monomer content of compounds was evaluated by adjusting aqueous solutions to physiological pH at various concentrations. The monomer content of pH adjusted solutions was measured using LC-UV. Test compounds were weighed out into a 1.5 mL Eppendorf tube. A solution of water was prepared in 1.00 mg/mL, 10.0 mg/mL or 100 mg/mL concentrations of the compound based on active fraction. A volume 20 uL was subtracted to allow room for addition of acid or base to adjust pH. The solution pH was measured. The pH was then adjusted through addition of acid or base as necessary until the reading was in the 7.6 to 8 range. A final pH measurement was made after ensuring all the compound was in solution. The solution was injected onto LC-UV in 0.1 uL to 5 uL volume within less than half an hour after the time the sample was prepared. Elution was done using 0.1% TFA in water for mobile phase A and 0.085% TFA in methanol for mobile phase B on an Excel ACE 5 Super C18 2.1×100 mm column at 0.6 ml/min flow rate with 9 min gradient, 3.9 minute hold at 90% B and 18 minute run time. The absorption was measured at 220, 254 and 300 nm with a 4 nm bandwidth.

The next data set relates to KP1004 (KPC-2). The experiment in a line: Biapenem potentiation (MPC@1), KP1004. The settings on record: BLI with biapenem at 1 μg/mL.
For a further data set, the system named is KP1086 (OXA-48). As to the kind of experiment: Biapenem potentiation (MPC@1), KP1086. To be noted: BLI with biapenem at 1 μg/mL.
A short description of data set [8]: Serum stability of prodrugs, human serum. It is filed as in vitro ADME. The settings on record: human serum; prodrug; theoretical initial conc. 20 ug/mL. As for the experimental part:
(§2) Prodrug strategy is one of the ways to achieve or increase oral bioavailability for therapeutic drugs. […] After a prodrug molecule is absorbed into systemic circulation, it should be hydrolyzed in the blood in order to release the active form. Hydrolysis of several prodrugs by rat and human serum were evaluated.
(§3) For all stability experiments the test compounds were treated with rat or human serum in Eppendorf tubes. Typically, 992 μl of serum was prewarmed at 37 degrees for 2 minutes and then 8 μl of a compound (at 5 mg/ml, 125×) was added to it to get a final concentration of […] and immediately mixed. Alternatively, serum stability might be tested at 1 mg/ml. […] After vortexing for 30 seconds, the tube was centrifuged in a microcentrifuge for 10 minutes at 15K rpm. Next, 100 μl of the supernatant was combined with 600 μl of water and injected on LC-MS using 0.1% formic acid in water for mobile phase A and 0.1% formic acid in methanol for mobile phase B on an ACE 5 C18 2.1×100 mm column with a 10 μL injection. The flow rate and gradient were adjusted as needed to give the desired resolution and run time. The pH of the mobile phase was adjusted if needed to improve the chromatography.
(§4) The time course of both the disappearance of a prodrug and the appearance of the active form of that prodrug is presented in Table 6 and Table 7. The active metabolites for all of the listed prodrugs are corresponding parent drugs

The nature of data set [9]: Serum stability of prodrugs, rat serum. It is filed as in vitro ADME. To be noted: theoretical initial conc. 20 ug/mL; for Measured Initial Conc. in Serum: 37 degrees; for Conc. at t = 1 hr / Conc. at t = 3 hr: prodrug. As for the experimental part:
as §2, §3, §4

Data set [10] is described as follows: Serum stability of prodrugs, human serum. It is filed as in vitro ADME. The settings on record: theoretical initial conc. 20 ug/mL; for Measured Initial Conc. in Serum: 37 degrees; for Conc. at t = 1 hr: prodrug.

As usually defined, the Ki is a dissociation constant, usually derived from enzyme kinetics or from competition with a known ligand.

Structures are written as SMILES.

Sequence of SHV-12 (P0AD64 22-286 L31Q/G234S/E235K): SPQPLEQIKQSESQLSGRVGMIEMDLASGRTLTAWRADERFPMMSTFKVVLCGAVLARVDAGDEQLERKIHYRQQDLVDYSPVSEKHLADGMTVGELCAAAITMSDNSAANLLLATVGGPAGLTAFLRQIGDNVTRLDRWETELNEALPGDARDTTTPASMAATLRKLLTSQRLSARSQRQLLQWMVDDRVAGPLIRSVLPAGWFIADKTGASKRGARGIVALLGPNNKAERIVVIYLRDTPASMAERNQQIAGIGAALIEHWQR
Sequence of P99 (P05364 21-381): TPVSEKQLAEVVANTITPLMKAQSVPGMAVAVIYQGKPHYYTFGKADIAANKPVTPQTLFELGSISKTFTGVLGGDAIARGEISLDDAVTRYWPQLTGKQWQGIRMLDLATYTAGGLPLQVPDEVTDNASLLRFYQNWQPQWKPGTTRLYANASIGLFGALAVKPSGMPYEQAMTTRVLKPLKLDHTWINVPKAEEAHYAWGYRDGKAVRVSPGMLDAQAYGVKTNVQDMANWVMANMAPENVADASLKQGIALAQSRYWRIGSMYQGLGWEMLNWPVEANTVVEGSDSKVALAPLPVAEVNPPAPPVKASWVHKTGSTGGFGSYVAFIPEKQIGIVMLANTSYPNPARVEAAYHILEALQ
Sequence of OXA-48 (Q6XEC0 23-265, looked up, species assumed): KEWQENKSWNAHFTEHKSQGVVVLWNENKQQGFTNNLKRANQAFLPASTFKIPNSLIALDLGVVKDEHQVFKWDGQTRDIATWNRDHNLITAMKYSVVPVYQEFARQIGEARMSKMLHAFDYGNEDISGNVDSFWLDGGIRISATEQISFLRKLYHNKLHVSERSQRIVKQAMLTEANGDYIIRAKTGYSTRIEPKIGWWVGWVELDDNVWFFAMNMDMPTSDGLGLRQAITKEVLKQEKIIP
Sequence of CTX-M-14 (Q9L5C7 29-291): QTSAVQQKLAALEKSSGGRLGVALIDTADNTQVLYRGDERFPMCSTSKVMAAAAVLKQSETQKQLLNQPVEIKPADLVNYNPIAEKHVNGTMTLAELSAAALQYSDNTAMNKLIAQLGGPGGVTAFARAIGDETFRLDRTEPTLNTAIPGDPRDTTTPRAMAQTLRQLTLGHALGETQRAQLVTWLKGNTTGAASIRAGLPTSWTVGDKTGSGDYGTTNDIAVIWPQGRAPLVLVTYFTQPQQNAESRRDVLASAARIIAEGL
Sequence of KPC-2 (Q9F663 25-293, looked up, species assumed): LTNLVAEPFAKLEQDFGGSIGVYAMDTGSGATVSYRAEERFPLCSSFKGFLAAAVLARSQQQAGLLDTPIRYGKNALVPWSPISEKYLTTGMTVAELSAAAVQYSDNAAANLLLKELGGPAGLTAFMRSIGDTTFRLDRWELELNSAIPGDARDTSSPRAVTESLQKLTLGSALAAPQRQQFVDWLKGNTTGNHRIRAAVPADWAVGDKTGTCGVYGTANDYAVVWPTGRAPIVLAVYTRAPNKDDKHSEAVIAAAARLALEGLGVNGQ

Take `CSCC(=O)N[C@H]1Cc2ccc(SC)c(C(=O)O)c2OB1O` [Compound 10, (R)-2-hydroxy-7-(methylthio)-3-(2-(methylthio)acetamido)-3,4-dihydro-2H-benzo[e][1,2]oxaborinine-8-carboxylic acid]: the “AZT MPC4 TEM-10 ec302” value with ec302 (TEM-10) [1] is given as “Y (MIC of 1 μg/mL to 10 μg/mL)”. The “AZT MPC4 ECL1002” value in the data set on ECL1002 [2] is recorded as “Y (MIC of 1 μg/mL to 10 μg/mL)”. For the same molecule, the “AZT MPC4 CMY-6 EC1010” value in the data set on EC1010 (CMY-6) [3] is recorded as “Y (key: X: MIC of less than 1 ng/mL; Y: MIC of 1 μg/mL to 10 μg/mL; Z: MIC of greater than 10 μg/mL)”. Further, the “TIG MPC4 CTX-M-14 KP1005” value in the data set on KP1005 (CTX-M-14) is “Y (MIC of 1 μg/mL to 10 μg/mL)”. The “TIG MPC4 CTX-M-15 KP1009” value in the data set on KP1009 (CTX-M-15) is given as “X (MIC of less than 1 μg/mL)”. For the same molecule, in the data set on ec308 (SHV-5), the “TIG MPC4 SHV-5 ec308” value is recorded as “X (key: X: MIC of less than 1 μg/mL; Y: MIC of 1 μg/mL to 10 μg/mL; Z: MIC of greater than 10 μg/mL)”. Moreover, the “TIG MPC4 SHV-12 KP1010” value in the data set on KP1010 (SHV-12) is recorded as “X (key: X: MIC of less than 1 μg/mL; Y: MIC of 1 μg/mL to 10 μg/mL; Z: MIC of greater than 10 μg/mL)”. Further, the “TIG MPC4 TEM-10 ec302” value in the data set on ec302 (TEM-10) [4] is “Y (key: X: MIC of less than 1 ng/mL; Y: MIC of 1 μg/mL to 10 μg/mL; Z: MIC of greater than 10 μg/mL)”. Also, in the data set with ECL1002 [5], the “TIG MPC4 ECL1002” value is reported as “X (MIC of less than 1 μg/mL)”. The “TIG MPC4 CMY-6 EC1010” value in the data set on EC1010 (CMY-6) [6] is listed as “X (MIC of less than 1 μg/mL)”. The inhibition constant Ki at CTX-M-14 was less than 1 nM; on SHV-12 it was less than 1 nM; on KPC-2 it was greater than 10 nM; at P99, greater than 10 nM; at OXA-48, 1 to 10 nM. In addition, the “% Monomer in 1 mg/mL salt solution” value in data set [7] stood at 87.5%. Also, the “BPM MPC1 KP1004 KPC-2” value with KP1004 (KPC-2) was “X (MIC of less than 1 μg/mL)”. Further, in the data set with KP1086 (OXA-48), the “BPM MPC1 OXA-48 KP1086” value is “Z (MIC of greater than 10 μg/mL)”.

With `COc1ccc2c(c1C(=O)OCOC(=O)C(C)C)OB(O)[C@@H](NC(=O)CSC)C2` [Compound 42, 2-methylpropanoyloxymethyl(3R)-2-hydroxy-7-methoxy-3-[(2-methylsulfanylacetyl)amino]-3,4-dihydro-1,2-benzoxaborinine-8-carboxylate], the “Conc. at t = 3 hr” value in data set [8] was determined as 16500 ng/mL. Besides, in [9], the “Measured Initial Conc. in Serum” value is 24.2 µg/mL, the “Conc. at t = 1 hr” value turned out to be 14100 ng/mL and the “Conc. at t = 3 hr” value stood at 5580 ng/mL. Also, in data set [10], the “Measured Initial Conc. in Serum” value is 23.4 µg/mL and the “Conc. at t = 1 hr” value amounted to 19500 ng/mL.

Take `CSCC(=O)N[C@H]1Cc2ccc(F)c(C(=O)OCOC(=O)c3ccccc3)c2OB1O` [Compound 43, benzoyloxymethyl(3R)-7-fluoro-2-hydroxy-3-[(2-methylsulfanylacetyl)amino]-3,4-dihydro-1,2-benzoxaborinine-8-carboxylate]: the “Conc. at t = 3 hr” value in data set [8] was 3160 ng/mL. In [9], the “Measured Initial Conc. in Serum” value was 18.0 µg/mL, the “Conc. at t = 1 hr” value worked out at 11700 ng/mL and the “Conc. at t = 3 hr” value worked out at 4580 ng/mL. Moreover, in data set [10], the “Measured Initial Conc. in Serum” value was 18.9 µg/mL and the “Conc. at t = 1 hr” value was 8940 ng/mL.

For the molecule `CSCC(=O)N[C@H]1Cc2ccc(SC)c(C(=O)OCOC(=O)C(C)C)c2OB1O` [Compound 44, 2-methylpropanoyloxymethyl(3R)-2-hydroxy-7-methylsulfanyl-3-[(2-methylsulfanylacetyl)amino]-3,4-dihydro-1,2-benzoxaborinine-8-carboxylate], the “Conc. at t = 3 hr” value in [8] amounted to 12500 ng/mL. For the same molecule, in data set [9], the “Measured Initial Conc. in Serum” value worked out at 18.4 µg/mL, the “Conc. at t = 1 hr” value is 16000 ng/mL and the “Conc. at t = 3 hr” value came out at 5210 ng/mL. Besides, in data set [10], the “Measured Initial Conc. in Serum” value came out at 18.6 µg/mL and the “Conc. at t = 1 hr” value came to 18100 ng/mL.

Regarding `CSCC(=O)N[C@H]1Cc2cc(F)c(F)c(C(=O)OCOC(=O)C(C)C)c2OB1O` [Compound 45, 2-methylpropanoyloxymethyl(3R)-6,7-difluoro-2-hydroxy-3-[(2-methylsulfanylacetyl)amino]-3,4-dihydro-1,2-benzoxaborinine-8-carboxylate], in data set [8], the “Conc. at t = 3 hr” value is 580 ng/mL. In data set [9], the “Measured Initial Conc. in Serum” value turned out to be 18.6 µg/mL, the “Conc. at t = 1 hr” value was 8850 ng/mL and the “Conc. at t = 3 hr” value came to 420 ng/mL. Further, in [10], the “Measured Initial Conc. in Serum” value is 18.4 µg/mL and the “Conc. at t = 1 hr” value turned out to be 4830 ng/mL.

Take `CSCC(=O)N[C@H]1Cc2cc(Cl)c(F)c(C(=O)OCOC(=O)C(C)C)c2OB1O` [Compound 46, 2-methylpropanoyloxymethyl(3R)-6-chloro-7-fluoro-2-hydroxy-3-[(2-methylsulfanylacetyl)amino]-3,4-dihydro-1,2-benzoxaborinine-8-carboxylate]: in [8], the “Conc. at t = 3 hr” value was 1010 ng/mL. Further, in data set [9], the “Measured Initial Conc. in Serum” value was found to be 18.7 µg/mL, the “Conc. at t = 1 hr” value came out at 8290 ng/mL and the “Conc. at t = 3 hr” value was 410 ng/mL. Also, in data set [10], the “Measured Initial Conc. in Serum” value was 19.1 µg/mL and the “Conc. at t = 1 hr” value stood at 6220 ng/mL.
